As usually defined, the pIC50 is −log10 of the IC50, conventionally taken in molar units.

We go through 2 compounds from patent publication US6949250B2, “Selective algaecides for control of cyanochloronta” (The United States of America as represented by the …, priority 2002, dated 2005).

pIC50: −log10 of the molar value. Where two headings read alike, the source gives them in different places.

The subject of data set [1] is Oscillatoria perornata. The data set can be described thus: Rapid bioassay screening for selective algicides (LOEC, LCIC). The class given is cell-based. The note with it: rapid screening; for MIC: read-out: LCIC (lowest-complete-inhibition concentration), Oscillatoria perornata; for minimal effective concentration: read-out: LOEC (lowest-observed-effect concentration), Oscillatoria perornata.

The subject of data set [2] is Selenastrum capricornutum. The description is as above. The note with it: rapid screening. The class given is cell-based.
Data set [3] concerns Oscillatoria perornata. The data set can be described thus: 96-hour IC50 determination. The class given is cell-based. The note with it: for pIC50: 96-hour 50% inhibition concentration; for selective toxicity towards O. perornata compared to S. capricornutum (result in words): based on laboratory screening and IC50 results. On the procedure: (§1) The green alga Selenastrum capricornutum (obtained from the United States Environmental Protection Agency, Corvallis, Oreg.) was used as the representative green algal species in the bioassay since it is a common species found in southeastern United States catfish ponds. […] In addition, a 96-hour 50% inhibition concentration (IC50) was determined for DNA1-19-1 and DNA2-59-1 by using the method described by Schrader et al. (1998b). Stock solutions of DNA1-19-1 and DNA2-59-1 were prepared so that final concentrations screened for 96-hour IC50 determinations were as follows: 1) 0, 0.01, 0.033, 0.1, 0.333, 1.0, 3.3, and 10.0 μM DNA1-19-1 for both O. perornata and S. capricornutum; 2) 0, 0.003, 0.01, 0.033, 0.1, 0.333, 1.0, and 3.333 μM DNA2-59-1 for O. perornata; and 3) 0, 0.1, 0.333, 1.0, 3.333, 10.0, 33.333, and 100.0 μM DNA2-59-1 for S. capricornutum. Estimation of the IC50 was determined by plotting 96-hour absorbance readings against logarithmic dilution values of the anthraquinone analogs.
(§2) The green alga Selenastrum capricornutum (obtained from the United States Environmental Protection Agency, Corvallis, Oreg.) was used as the representative green algal species in the bioassay since it is a common species found in southeastern United States catfish ponds. […] Stock solutions of DNA1-19-1 and DNA2-59-1 were prepared so that final concentrations screened for 96-hour IC50 determinations were as follows: 1) 0, 0.01, 0.033, 0.1, 0.333, 1.0, 3.3, and 10.0 μM DNA1-19-1 for both O. perornata and S. capricornutum; 2) 0, 0.003, 0.01, 0.033, 0.1, 0.333, 1.0, and 3.333 μM DNA2-59-1 for O. perornata; and 3) 0, 0.1, 0.333, 1.0, 3.333, 10.0, 33.333, and 100.0 μM DNA2-59-1 for S. capricornutum. Estimation of the IC50 was determined by plotting 96-hour absorbance readings against logarithmic dilution values of the anthraquinone analogs.

Data set [4] relates to Selenastrum capricornutum. Briefly: 96-hour IC50 determination. The class given is cell-based. The note with it: 96-hour 50% inhibition concentration, read-out: IC50, Selanastrum capricornutum. On the procedure: as §1, §2
The nature of the next data set: Solubility in water. The class given is physicochemical.

`CCN(CC)CCCC(C)NCc1ccc2c(c1)C(=O)c1ccccc1C2=O.O=P(O)(O)O.O=P(O)(O)O` (stereo not shown) [DNA1-19-1, 2-[methylamino-N-(1′-methyl-4′-N,N-diethylaminobutyl)]-9,10-anthraquinone diphosphate]: in the data set with Oscillatoria perornata [1], the MIC amounted to 0.1 µM and the minimal effective concentration turned out to be 10 nM. In addition, in data set [2], the “LCIC (lowest-complete-inhibition concentration), Selenastrum capricornutum” value was 10,000 nM and the “LOEC (lowest-observed-effect concentration), Selenastrum capricornutum” value is reported as 10,000 nM. In the data set on Oscillatoria perornata [3], the pIC50 is 7.20 and the “selective toxicity towards O. perornata compared to S. capricornutum (result in words)” value is “very selectively toxic”. In data set [4], the pIC50 was 5.30. Also, in the data set “Solubility in water”, the “solubility in water” value is reported as “soluble in water”.
With `CC(C)NCc1ccc2c(c1)C(=O)c1ccccc1C2=O` [DNA2-59-1, 2-[methylamino-N-(1′-methylethyl)]-9,10-anthraquinone monophosphate], the MIC in the data set with Oscillatoria perornata [1] (Planktothrix perornata) stood at 0.1 µM; in data set [2] (Selenastrum capricornutum, read-out: LCIC (lowest-complete-inhibition concentration), Selenastrum capricornutum), 100 µM. Also, the minimal effective concentration with Oscillatoria perornata [1] (Planktothrix perornata) was 10 nM; in data set [2] (Selenastrum capricornutum, read-out: LOEC (lowest-observed-effect concentration), Selenastrum capricornutum) it was 10 µM. Moreover, the pIC50 is 8.20 with Oscillatoria perornata [3] (Planktothrix perornata) and 5.25 in data set [4] (Selenastrum capricornutum). Moreover, the “selective toxicity towards O. perornata compared to S. capricornutum (result in words)” value with Oscillatoria perornata [3] is recorded as “very selectively toxic”. For the same compound, the “solubility in water” value in “Solubility in water” is listed as “soluble in water”.
